Source: patent US20250326771A1, “PIPERAZINE DERIVATIVES USEFUL IN HIV THERAPY” (VIIV HEALTHCARE COMPANY, priority 2022, published 2025)

Legend:
[1] = test system: Jurkat HIV-luciferase clones; assay: Jurkat latency reversal assay; format: cell-based; conditions: Homo sapiens, 48 h; Jurkat latency reversal assay potency; read-out: Jurkat pEC50 (converted)
Procedure, shortened: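 A 1:1:1 mix of three Jurkat clones (C16, 115, N6) carrying integrated luciferase-expressing HIV proviruses, 5,000 cells/well, was exposed to 3-fold, 14-point compound titrations from 10 μM at 0.5% DMSO for 48 h at 37° C. Steady-Glo luminescence was fitted by four-parameter logistic regression to give EC50 and maximal percent activation relative to vehicle.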

cIAP1-BIR2 = cIAP1-BIR2 (Homo sapiens (Human), UniProt Q13490); assay: BIR binding assay (FRET competition), cIAP1 BIR2
Procedure, shortened: (§1)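 His-tagged domains (50 nM cIAP1-BIR3, 325 nM cIAP2-BIR2, 325 nM cIAP1-BIR2, 100 nM XIAP-BIR3) compete with compounds for a 200 nM AlexaFluor647-labelled SMAC/DIABLO peptide in HEPES buffer, pH 7.4, for 60 min. Then 2 nM Eu-W1024 is added for 30 min. The 615/665 nm ratio is fit by four-parameter fit to give IC50.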

cIAP1-BIR3 = cIAP1-BIR3 (Homo sapiens (Human), UniProt Q13490); assay: BIR binding assay (FRET competition), cIAP1 BIR3; conditions: for cIAP1 BIR3 vs BIR2 separation window: fold separation (FS) for cIAP1
Procedure, shortened: as §1

XIAP-BIR2 = XIAP-BIR2 (Homo sapiens (Human), UniProt P98170); assay: BIR binding assay (FRET competition), XIAP BIR2; conditions: FRET competition binding; for IC50: read-out: XIAP BIR2 (pIC50) (converted)
Procedure, shortened: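 Compounds in a 15-point, 3-fold series competed with an AlexaFluor647 SMAC peptide (AVPIAQKSE, 200 nM) for 200 nM His-tagged XIAP-BIR2 over 60 min in pH 7.4 HEPES/CHAPS/DTT buffer. Eu-W1024 (2 nM) was then added for 30 min. IC50 and pIC50 were derived from the 615 nm/665 nm emission ratio by variable-slope fit.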

cIAP2-BIR2 = cIAP2-BIR2 (Homo sapiens (Human), UniProt Q13489); assay: BIR binding assay (FRET competition), cIAP2 BIR2
Procedure, shortened: as §1

XIAP-BIR3 = XIAP-BIR3 (Homo sapiens (Human), UniProt P98170); assay: BIR binding assay (FRET competition), XIAP BIR3; conditions: for XIAP BIR3 vs BIR2 separation window: fold separation (FS) for XIAP
Procedure, shortened: as §1

cIAP2-BIR3 = cIAP2-BIR3 (Homo sapiens (Human), UniProt Q13489); assay: BIR binding assay (FRET competition), cIAP2 BIR3; conditions: for cIAP2 BIR3 vs BIR2 separation window: fold separation (FS) for cIAP2
cIAP2-BIR3, sequence (Q13489 238-349): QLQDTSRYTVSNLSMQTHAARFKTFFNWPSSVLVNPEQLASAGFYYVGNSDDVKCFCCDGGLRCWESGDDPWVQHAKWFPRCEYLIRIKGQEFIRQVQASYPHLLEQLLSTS

cIAP2-BIR2, sequence (Q13489 158-242): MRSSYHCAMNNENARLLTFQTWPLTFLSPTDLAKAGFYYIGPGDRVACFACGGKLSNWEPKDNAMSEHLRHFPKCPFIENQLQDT
cIAP1-BIR2, sequence (Q13490 173-257): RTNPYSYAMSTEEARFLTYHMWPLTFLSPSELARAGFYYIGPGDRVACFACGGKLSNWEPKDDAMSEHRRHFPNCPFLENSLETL
XIAP-BIR3, sequence (P98170 241-356): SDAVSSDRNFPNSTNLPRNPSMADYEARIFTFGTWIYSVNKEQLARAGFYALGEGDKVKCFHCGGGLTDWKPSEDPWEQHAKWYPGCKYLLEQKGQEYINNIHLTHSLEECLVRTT
XIAP-BIR2, sequence (P98170 124-240): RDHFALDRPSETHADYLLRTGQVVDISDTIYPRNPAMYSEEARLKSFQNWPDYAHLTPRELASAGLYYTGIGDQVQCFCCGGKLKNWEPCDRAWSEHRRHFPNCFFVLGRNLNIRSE
cIAP1-BIR3, sequence (Q13490 253-363): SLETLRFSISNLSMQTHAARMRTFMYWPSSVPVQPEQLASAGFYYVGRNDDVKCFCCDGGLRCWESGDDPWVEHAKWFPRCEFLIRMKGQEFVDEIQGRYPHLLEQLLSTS

SMILES | EC50 [1] [µM] | IC50 (cIAP1-BIR2) [µM] | IC50 (cIAP1-BIR3) [µM] | cIAP1 BIR3 vs BIR2 separation window (cIAP1-BIR3) | IC50 (XIAP-BIR2) [µM] | IC50 (cIAP2-BIR2) [µM] | IC50 (XIAP-BIR3) [µM] | XIAP BIR3 vs BIR2 separation window (XIAP-BIR3) | IC50 (cIAP2-BIR3) [µM] | cIAP2 BIR3 vs BIR2 separation window (cIAP2-BIR3) | XIAP BIR2 (pIC50) (XIAP-BIR2)
C[C@@H]1CN(CC(=O)N2CC(C)(C)c3[nH]c(=O)c(Cc4ccc(F)cc4)cc32)[C@@H](CN2CCC(CC(=O)NCc3ccc(CNC(=O)CC4CCN(C[C@H]5CN[C@H](C)CN5CC(=O)N5CC(C)(C)c6[nH]c(=O)c(Cc7ccc(F)cc7)cc65)CC4)cc3)CC2)CN1 [Example 105, N,N′-(1,4-phenylenebis(methylene))bis(2-(1-(((2R,5R)-1-(2-(6-(4-fluorobenzyl)-3,3-dimethyl-5-oxo-2,3,4,5-tetrahydro-1H-pyrrolo[3,2-b]pyridin-1-yl)-2-oxoethyl)-5-methylpiperazin-2-yl)methyl)piperidin-4-yl)acetamide)] | 0.0631 to 0.316 | 3.16 to 10 | 0.00794 to 0.0158 | +++ (10,000>FS>1,000) | 10 to 51.3 | 3.16 to 10 | 0.00794 to 0.0158 | ++++ (FS>10,000) | 0.00794 to 0.0158 | +++ (10,000>FS>1,000) | 
C[C@@H]1CN(CC(=O)N2CC(C)(C)c3[nH]c(=O)c(Cc4ccc(F)cc4)cc32)[C@@H](CN2CCC(CC(=O)N(C)Cc3ccc(CN(C)C(=O)CC4CCN(C[C@H]5CN[C@H](C)CN5CC(=O)N5CC(C)(C)c6[nH]c(=O)c(Cc7ccc(F)cc7)cc65)CC4)cc3)CC2)CN1 [Example 106, N,N′-(1,4-phenylenebis(methylene))bis(2-(1-(((2R,5R)-1-(2-(6-(4-fluorobenzyl)-3,3-dimethyl-5-oxo-2,3,4,5-tetrahydro-1H-pyrrolo[3,2-b]pyridin-1-yl)-2-oxoethyl)-5-methylpiperazin-2-yl)methyl)piperidin-4-yl)-N-methylacetamide)] | 0.0126 to 0.0631 | 1 to 3.16 | 0.00138 to 0.00794 | +++ (10,000>FS>1,000) | 10 to 51.3 | 1 to 3.16 | 0.00138 to 0.00794 | ++++ (FS>10,000) | 0.00138 to 0.00794 | +++ (10,000>FS>1,000) | 
C[C@@H]1CN(CC(=O)N2CC(C)(C)c3[nH]c(=O)c(Cc4ccc(F)cc4)cc32)[C@@H](CN2CCC(COc3cccc(OCC4CCN(C[C@H]5CN[C@H](C)CN5CC(=O)N5CC(C)(C)c6[nH]c(=O)c(Cc7ccc(F)cc7)cc65)CC4)c3)CC2)CN1 [Example 107, 1,1′-(2,2′-((3R,3′R,6R,6′R)-((((1,3-phenylenebis(oxy))bis(methylene))bis(piperidine-4,1-diyl))bis(methylene))bis(3-methylpiperazine-6,1-diyl))bis(acetyl))bis(6-(4-fluorobenzyl)-3,3-dimethyl-1,2,3,4-tetrahydro-5H-pyrrolo[3,2-b]pyridin-5-one)] | 0.0126 to 0.0631 | 1 to 3.16 | 0.00794 to 0.0158 | +++ (10,000>FS>1,000) | 10 to 51.3 | 10 to 51.3 | 0.00794 to 0.0158 | ++++ (FS>10,000) | 0.00138 to 0.00794 | ++++ (FS>10,000) | 
C[C@@H]1CN(CC(=O)N2CC(C)(C)c3[nH]c(=O)c(Cc4ccc(F)cc4)cc32)[C@@H](CN2CCO[C@@H](C(=O)NCc3ccc(CNC(=O)[C@H]4CN(C[C@H]5CN[C@H](C)CN5CC(=O)N5CC(C)(C)c6[nH]c(=O)c(Cc7ccc(F)cc7)cc65)CCO4)cc3)C2)CN1 [Example 111, (2R,2′R)-N,N′-(1,4-phenylenebis(methylene))bis(4-(((2R,5R)-1-(2-(6-(4-fluorobenzyl)-3,3-dimethyl-5-oxo-2,3,4,5-tetrahydro-1H-pyrrolo[3,2-b]pyridin-1-yl)-2-oxoethyl)-5-methylpiperazin-2-yl)methyl)morpholine-2-carboxamide)] | 0.0126 to 0.0631 | 3.16 to 10 | 0.00794 to 0.0158 | +++ (10,000>FS>1,000) | 10 to 51.3 | 3.16 to 10 | 0.0316 to 0.501 | +++ (10,000>FS>1,000) | 0.00794 to 0.0158 | +++ (10,000>FS>1,000) | 
C[C@@H]1CN(CC(=O)N2CC(C)(C)c3[nH]c(=O)c(Cc4ccc(F)cc4)cc32)[C@@H](CN2CCO[C@@H](COc3cccc(OC[C@H]4CN(C[C@H]5CN[C@H](C)CN5CC(=O)N5CC(C)(C)c6[nH]c(=O)c(Cc7ccc(F)cc7)cc65)CCO4)c3)C2)CN1 [Example 112, 1,1′-(2,2′-((3R,3′R,6R,6′R)-(((2R,2′R)-((1,3-phenylenebis(oxy))bis(methylene))bis(morpholine-2,4-diyl))bis(methylene))bis(3-methylpiperazine-6,1-diyl))bis(acetyl))bis(6-(4-fluorobenzyl)-3,3-dimethyl-1,2,3,4-tetrahydro-5H-pyrrolo[3,2-b]pyridin-5-one)] | 0.0126 to 0.0631 | 3.16 to 10 | 0.00794 to 0.0158 | +++ (10,000>FS>1,000) | 10 to 51.3 | 1 to 3.16 | 0.0158 to 0.0316 | +++ (10,000>FS>1,000) | 0.00794 to 0.0158 | +++ (10,000>FS>1,000) | 
C[C@@H]1CN(CC(=O)N2CC(C)(C)c3[nH]c(=O)c(Cc4ccc(F)cc4)cc32)[C@@H](CN2CCO[C@@H](COCCCCOC[C@H]3CN(C[C@H]4CN[C@H](C)CN4CC(=O)N4CC(C)(C)c5[nH]c(=O)c(Cc6ccc(F)cc6)cc54)CCO3)C2)CN1 [Example 113, 1,1′-(2,2′-((3R,3′R,6R,6′R)-(((2R,2′R)-((butane-1,4-diylbis(oxy))bis(methylene))bis(morpholine-2,4-diyl))bis(methylene))bis(3-methylpiperazine-6,1-diyl))bis(acetyl))bis(6-(4-fluorobenzyl)-3,3-dimethyl-1,2,3,4-tetrahydro-5H-pyrrolo[3,2-b]pyridin-5-one)] | 0.00049 to 0.0126 | 3.16 to 10 | 0.00794 to 0.0158 | +++ (10,000>FS>1,000) | 10 to 51.3 | 3.16 to 10 | 0.0158 to 0.0316 | ++++ (FS>10,000) | 0.00794 to 0.0158 | +++ (10,000>FS>1,000) | 
C[C@@H]1CN(CC(=O)N2CC(C)(C)c3c2cc(Cc2ccc(F)cc2)c(=O)n3C)[C@@H](CN2CCO[C@H](COc3ccc(Cc4ccc(OC[C@@H]5CN(C[C@H]6CN[C@H](C)CN6CC(=O)N6CC(C)(C)c7c6cc(Cc6ccc(F)cc6)c(=O)n7C)CCO5)cc4)cc3)C2)CN1 [Example 115, 1,1′-(2,2′-((3R,3′R,6R,6′R)-(((2S,2'S)-(((methylenebis(4,1-phenylene))bis(oxy))bis(methylene))bis(morpholine-2,4-diyl))bis(methylene))bis(3-methylpiperazine-6,1-diyl))bis(acetyl))bis(6-(4-fluorobenzyl)-3,3,4-trimethyl-1,2,3,4-tetrahydro-5H-pyrrolo[3,2-b]pyridin-5-one)] | 0.0631 to 0.316 | 3.16 to 10 | 0.0316 to 0.501 | +++ (10,000>FS>1,000) |  | 10 to 51.3 | 0.0316 to 0.501 | ++ (1,000>FS>100) | 0.0316 to 0.501 | +++ (10,000>FS>1,000) | ++ (5.00<pIC50<=5.50)
C[C@@H]1CN(CC(=O)N2CC(C)(C)c3c2cc(Cc2ccc(F)cc2)c(=O)n3C)[C@@H](CN2CCO[C@H](COCc3ccc(COC[C@@H]4CN(C[C@H]5CN[C@H](C)CN5CC(=O)N5CC(C)(C)c6c5cc(Cc5ccc(F)cc5)c(=O)n6C)CCO4)cc3)C2)CN1 [Example 117, 1,1′-(2,2′-((3R,3′R,6R,6′R)-(((2S,2'S)-(((1,4-phenylenebis(methylene))bis(oxy))bis(methylene))bis(morpholine-2,4-diyl))bis(methylene))bis(3-methylpiperazine-6,1-diyl))bis(acetyl))bis(6-(4-fluorobenzyl)-3,3,4-trimethyl-1,2,3,4-tetrahydro-5H-pyrrolo[3,2-b]pyridin-5-one)] | 0.0631 to 0.316 | 3.16 to 10 | 0.0158 to 0.0316 | +++ (10,000>FS>1,000) | 10 to 51.3 | 3.16 to 10 | 0.0316 to 0.501 | ++++ (FS>10,000) | 0.0158 to 0.0316 | +++ (10,000>FS>1,000) | 
